Data taken from US11413278B2, “Compounds and methods for promoting stress resistance” (priority 2015, dated 2022).
Entries after “also recorded” stand apart in the source; their conditions may differ. Read-outs that look alike come from different tables or passages of the source.

Legend:
WI-38 cells [1] = assay: Long-term effects on cell viability (5 days, ATP; morphology, PI imaging); assay type: cell-based; settings: for Luminescence signal for ATP measurement, day-1 Average / Luminescence signal for ATP measurement, day-2 Average / Luminescence signal for ATP measurement, day-3 Average / Luminescence signal for ATP measurement, day-4 Average / Luminescence signal for ATP measurement, day-5 Average: n = 6, day-0 luminescence = 320956 ± 24708; for viability at 10 µM: Homo sapiens, WI-38, 120 h, read-out: ATP luminescence by day-5 normalized;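 as to Luminescence signal for ATP measurement, day-2 Average: compounds at 10 µM with ATP read daily over 5 days of treatment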;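 as to Luminescence signal for ATP measurement, day-3 Average: compounds at 10 µM with ATP read daily over 5 days of treatment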;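 as to Luminescence signal for ATP measurement, day-4 Average: compounds at 10 µM with ATP read daily over 5 days of treatment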;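 as to Luminescence signal for ATP measurement, day-5 Average: compounds at 10 µM with ATP read daily over 5 days of treatment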
[2] = tested on: phosphorylated γH2A.X and TP53BP1; assay: DNA damage marker analysis (immuno-staining); settings: for activity at 10 µM: Homo sapiens, WI-38, 24 h
How it was run: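 WI-38 cells were cultured 24 h, then treated with compounds for 24 h; H2O2 (700 μM, 3 h) and doxorubicin (300 nM, 24 h) served as DNA-damage controls. After fixation, cells were immunostained for phospho-γH2A.X (Ser-139) and phospho-TP53BP1 (Ser-1778), counterstained with DAPI, and imaged by automated high-content microscopy.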

[3] = Summary score for characterization of 38 core set hits; settings: for D = Triple resistant: 2-point score, multiplex resistance (cadmium, MMS, H2O2); for C = H2O2- & Cd-resistant: score, resistance to both H2O2 and cadmium
How it was run: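 Scoring awards 2 points per prominent longevity phenotype: resistance to multiple stresses, activation of FOXO3 and/or NRF2, reduced mTOR. Molecules with apparent DNA-damaging activity or cell toxicity in cultured human cells receive a negative point.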

[4] = tested on: human dermal fibroblast (HDF) primary cells; assay: H2O2-resistance in primary human dermal fibroblasts; assay type: cell-based; settings: for Assay 6: H2O2-resistant, at 10 uM, human dermal fibroblast (HDF) primary cells: YES/NO; for fold induction at 10 µM: Homo sapiens
WI-38 cells [5] = assay: Propidium iodide (PI) cell-death imaging upon H2O2 stress; assay type: cell-based, human; settings: for Assay 7: H2O2-resistant, at 10 uM, validated by propidium iodide (PI) cell-death imaging: w/H2O2, 3 hrs/4 hrs/5 hrs, YES/NO; for cytotoxicity at 10 µM: Homo sapiens, WI-38
LC3A/B puncta = assay: Autophagy induction analysis (LC3A/B puncta immuno-staining); assay type: cell-based, human; settings: for Exp. 2, induction of LC3A/B puncta (Up), overlapped signals normalized by total number of nuclei in the fields / Exp. 2, normalized change of nuclei numbers (Less cells): 20X objective, lysosomal LAMP co-staining
How it was run: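 WI-38 cells were treated with compounds for 24 hrs, then immunostained for LC3A/B (overnight, 4° C) with DAPI counterstain and imaged by high-content microscopy. Experiment 1 used total puncta intensity. Experiment 2 used LAMP2-colocalized (lysosomal) puncta. Intensity was normalized to nuclei count.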

[6] = Batch 1, 10 μM, day-5, DMSO ctrl = 100.0%
[7] = negative point, cultured human cells
[8] = Experiment 2, WI-38 cells, 10 μM, 24 hrs, no H2O2, normalized marker-positive fraction, n = 3
[9] = Experiment 2, WI-38 cells, 10 μM, 24 hrs, under H2O2 stress, normalized marker-positive fraction, n = 3
[10] = Exp. 1, 10 μM, 10X objective, WI-38 cells
[11] = read-out: Experiment 1, H2A.X-P DNA damage foci staining (no H2O2 stress treatment), at 10 uM
[12] = read-out: Experiment 2, H2A.X-P DNA damage foci staining (no H2O2 stress treatment), at 10 uM
[13] = read-out: Experiment 2, H2A.X-P DNA damage foci staining (under H2O2 stress treatment), at 10 uM
[14] = read-out: Experiment 2, TP53BP1-P DNA damage foci staining (no H2O2 stress treatment), at 10 uM
[15] = read-out: Experiment 2, TP53BP1-P DNA damage foci staining (under H2O2 stress treatment), at 10 uM
[16] = Experiment 1, HDF cells, read-out: Experiment 1, HDF cells (under H2O2 stress treatment), at 10 uM (fold change)
[17] = Experiment 2, HDF cells, read-out: Experiment 2, HDF cells (under H2O2 stress treatment), at 10 uM (fold change)
[18] = H2O2 3 hrs, 10 uM, n = 6, negative control 5.44% ± 0.79%, read-out: Percentage of propidium iodide-positive dead cells (under H2O2 stress treatment), 3 hrs
[19] = H2O2 4 hrs, 10 uM, n = 6, negative control 16.81% ± 1.42%, read-out: Percentage of propidium iodide-positive dead cells (under H2O2 stress treatment), 4 hrs
[20] = H2O2 5 hrs, 10 uM, n = 6, negative control 22.50% ± 1.53%, read-out: Percentage of propidium iodide-positive dead cells (under H2O2 stress treatment), 5 hrs
[21] = pre-treatment at 10 uM, 3.5 hours of H2O2, DMSO control 27.4% ± 6.5%, */**/*** = reduced by one/two/three standard deviations, read-out: Percentage of propidium iodide-positive dead cells (under H2O2 stress treatment), at 10 uM

Compound: COc1cc2c(no[n+]2[O-])n2nnnc12 [O11]
- Long-term cell toxicity (cell number, morphology, PI-positive dead cells) (WI-38 cells [1]; 10 μM, up to 5 days, no H2O2): reduced cell number substantially and increased the fraction of PI-positive dead cells; also recorded: less cells, and more cells scored positive for propidium iodide
- Luminescence signal for ATP measurement, day-1 Average (WI-38 cells [1]; Batch 1, 10 μM): 310373
- Luminescence signal for ATP measurement, day-2 Average (WI-38 cells [1]; Batch 1, 10 μM): 412288
- Luminescence signal for ATP measurement, day-3 Average (WI-38 cells [1]; Batch 1, 10 μM): 484520
- Luminescence signal for ATP measurement, day-4 Average (WI-38 cells [1]; Batch 1, 10 μM): 642267
- ATP luminescence by day-5 normalized (WI-38 cells [1]; [6]): 61.7%
- Luminescence signal for ATP measurement, day-5 Average (WI-38 cells [1]; Batch 1, 10 μM, day-5): 633963
- Q = Potential toxicity (WI-38 cells [1]; [7]): 1
- O = Potential toxicity (WI-38 cells [1]; summary score): 1
- Percentage of both γH2A.X- and TP53BP1-positive cells (DNA damage markers) ([2]; 10 μM, 24 hrs, absence of H2O2): did not appear to increase both
- Experiment 1, H2A.X-P DNA damage foci staining (no H2O2 stress treatment), at 10 uM ([2]; Experiment 1, WI-38 cells, 10 μM, 24 hrs, no H2O2, normalized marker-positive fraction, n = 3): 83.1%,
- Experiment 2, H2A.X-P DNA damage foci staining (no H2O2 stress treatment), at 10 uM [2, 8]: 91.2%,
- Experiment 2, TP53BP1-P DNA damage foci staining (no H2O2 stress treatment), at 10 uM [2, 8]: 154.0%,
- Experiment 2, H2A.X-P DNA damage foci staining (under H2O2 stress treatment), at 10 uM [2, 9]: 151.7%,
- Experiment 2, TP53BP1-P DNA damage foci staining (under H2O2 stress treatment), at 10 uM [2, 9]: 560.5%,
- R = Potential DNA damaging [2, 7]: 0
- P = Potential DNA-damaging ([2]; summary score): 0
- D = Triple resistant [3]: 0
- C = H2O2- & Cd-resistant [3]: 1
- S = Sum of Negative scores ([3]; sum of columns Q and R): 1
- Experiment 1, HDF cells (under H2O2 stress treatment), at 10 uM (fold change) ([4]; Experiment 1, HDF cells): 16.57 fold change
- Experiment 2, HDF cells (under H2O2 stress treatment), at 10 uM (fold change) ([4]; Experiment 2, HDF cells): 55.68 fold change
- Assay 6: H2O2-resistant, at 10 uM, human dermal fibroblast (HDF) primary cells [4]: YES
- Assay 7: H2O2-resistant, at 10 uM, validated by propidium iodide (PI) cell-death imaging (WI-38 cells [5]; 10 uM): YES
- Percentage of propidium iodide-positive dead cells (under H2O2 stress treatment), 3 hrs (WI-38 cells [5]; H2O2 3 hrs, 10 uM, n = 6, negative control 5.44% ± 0.79%): 2.19% ± 0.35%,
- Percentage of propidium iodide-positive dead cells (under H2O2 stress treatment), 4 hrs (WI-38 cells [5]; H2O2 4 hrs, 10 uM, n = 6, negative control 16.81% ± 1.42%): 2.80% ± 0.49%,
- Percentage of propidium iodide-positive dead cells (under H2O2 stress treatment), 5 hrs (WI-38 cells [5]; H2O2 5 hrs, 10 uM, n = 6, negative control 22.50% ± 1.53%): 2.90% ± 0.70%,
- Percentage of propidium iodide-positive dead cells (under H2O2 stress treatment), at 10 uM (WI-38 cells [5]; pre-treatment at 10 uM, 3.5 hours of H2O2, DMSO control 27.4% ± 6.5%, */**/*** = reduced by one/two/three standard deviations): 26.5%
- Assay 15: Potential autophagy induction by LC3A/B puncta assays (LC3A/B puncta; 10 uM & 20 uM, YES/NO): YES
- Exp. 1, induction of LC3A/B puncta (Up), total intensity normalized by total number of nuclei in the fields (LC3A/B puncta; [10]): p < 0.01; Up, 315%,
- Exp. 1, normalized change of nuclei numbers (Less cells) (LC3A/B puncta; [10]): Less cells, 64%,
- Exp. 2, induction of LC3A/B puncta (Up), overlapped signals normalized by total number of nuclei in the fields (LC3A/B puncta; Exp. 2, 10 μM, WI-38 cells): p < 0.001; Up, 193%,
- Exp. 2, normalized change of nuclei numbers (Less cells) (LC3A/B puncta; Exp. 2, 10 μM, WI-38 cells): Less cells, 71%,
- Exp. 2, induction of LC3A/B puncta (Up), overlapped signals normalized by total number of nuclei in the fields (LC3A/B puncta; Exp. 2, 20 μM, WI-38 cells): p < 0.001; Up, 159%,
- Exp. 2, normalized change of nuclei numbers (Less cells) (LC3A/B puncta; Exp. 2, 20 μM, WI-38 cells): Less cells, 69%,
- H = Potential Autophagy Induction (LC3A/B puncta; score): 1
- H = Potential Autophagy Induction (LC3A/B puncta; summary score): 1

Compound: CCCC(=O)Nc1ccc(-c2cn3cccc(C)c3n2)cc1 [O12]
- Luminescence signal for ATP measurement, day-1 Average (WI-38 cells [1]; Batch 1, 10 μM): 527095
- Luminescence signal for ATP measurement, day-2 Average (WI-38 cells [1]; Batch 1, 10 μM): 702483
- Luminescence signal for ATP measurement, day-3 Average (WI-38 cells [1]; Batch 1, 10 μM): 876448
- Luminescence signal for ATP measurement, day-4 Average (WI-38 cells [1]; Batch 1, 10 μM): 1128385
- Luminescence signal for ATP measurement, day-5 Average (WI-38 cells [1]; Batch 1, 10 μM, day-5): 1117938
- viability at 10 µM (WI-38 cells [1]; [6]): 109%
- O = Potential toxicity (WI-38 cells [1]; human, 5 days, 10 μM): 0
- Q = Potential toxicity (WI-38 cells [1]; human, 5 days, 10 μM): 0
- activity at 10 µM [2, 11]: 106%
- activity at 10 µM [2, 12]: 88%
- activity at 10 µM [2, 13]: 113%
- activity at 10 µM [2, 14]: 142%
- activity at 10 µM [2, 15]: 523%
- P = Potential DNA-damaging ([2]; human, 24 h): 0
- R = Potential DNA damaging ([2]; human, 24 h): 0
- D = Triple resistant [3]: 0
- S = Sum of Negative scores ([3]; human): 0
- C = H2O2- & Cd-resistant [3]: 1
- fold induction at 10 µM [4, 16]: 264
- fold induction at 10 µM [4, 17]: 49.2
- Assay 6: H2O2-resistant, at 10 uM, human dermal fibroblast (HDF) primary cells [4]: YES
- Assay 7: H2O2-resistant, at 10 uM, validated by propidium iodide (PI) cell-death imaging (WI-38 cells [5]; 10 uM): YES
- cytotoxicity at 10 µM (WI-38 cells [5]; [18]): 0.74%
- cytotoxicity at 10 µM (WI-38 cells [5]; [19]): 0.77%
- cytotoxicity at 10 µM (WI-38 cells [5]; [20]): 1.33%
- cytotoxicity at 10 µM (WI-38 cells [5]; [21]): 0.4%
- H = Potential Autophagy Induction (LC3A/B puncta; score): 0
- H = Potential Autophagy Induction (LC3A/B puncta; summary score): 0

Compound: O=C(c1ccc([N+](=O)[O-])o1)N1CCc2ccccc21 [O13]
- Luminescence signal for ATP measurement, day-1 Average (WI-38 cells [1]; Batch 1, 10 μM): 546070
- Luminescence signal for ATP measurement, day-2 Average (WI-38 cells [1]; Batch 1, 10 μM): 704210
- Luminescence signal for ATP measurement, day-3 Average (WI-38 cells [1]; Batch 1, 10 μM): 806718
- Luminescence signal for ATP measurement, day-4 Average (WI-38 cells [1]; Batch 1, 10 μM): 947030
- Luminescence signal for ATP measurement, day-5 Average (WI-38 cells [1]; Batch 1, 10 μM, day-5): 992715
- viability at 10 µM (WI-38 cells [1]; [6]): 96.7%
- O = Potential toxicity (WI-38 cells [1]; human, 5 days, 10 μM): 0
- Q = Potential toxicity (WI-38 cells [1]; human, 5 days, 10 μM): 0
- activity at 10 µM [2, 11]: 145%
- activity at 10 µM [2, 12]: 98.3%
- activity at 10 µM [2, 13]: 152%
- activity at 10 µM [2, 14]: 238%
- activity at 10 µM [2, 15]: 673%
- P = Potential DNA-damaging ([2]; human, 24 h): 0
- R = Potential DNA damaging ([2]; human, 24 h): 0
- D = Triple resistant [3]: 0
- S = Sum of Negative scores ([3]; human): 0
- C = H2O2- & Cd-resistant [3]: 0
- fold induction at 10 µM [4, 16]: 11.2
- fold induction at 10 µM [4, 17]: 60.5
- Assay 6: H2O2-resistant, at 10 uM, human dermal fibroblast (HDF) primary cells [4]: YES
- Assay 7: H2O2-resistant, at 10 uM, validated by propidium iodide (PI) cell-death imaging (WI-38 cells [5]; 10 uM): YES
- cytotoxicity at 10 µM (WI-38 cells [5]; [18]): 1.13%
- cytotoxicity at 10 µM (WI-38 cells [5]; [19]): 2.56%
- cytotoxicity at 10 µM (WI-38 cells [5]; [20]): 7.03%
- cytotoxicity at 10 µM (WI-38 cells [5]; [21]): 4.8%
- H = Potential Autophagy Induction (LC3A/B puncta; score): 0
- H = Potential Autophagy Induction (LC3A/B puncta; summary score): 0
